Entries after “also recorded” stand apart in the source; their conditions may differ.
Tests used:
Type in all cases: cell-based
[1] = test system: HIV-1NL4-3; experiment: HIV-1 replication measured by p24 release in CEM-SS T cells; conditions: CEM-SS T cells pre-treated 1 hour, infected with HIV-1NL4-3
Experimental: (§1) Briefly, CEM-SS T cells were pre-treated with DMSO or CK548 for 1 hour, and then infected with HIV-1NL4-3. Viral replication was measured by p24 release (see FIG. 5A). Drug cytotoxicity was meaured in CK548-treated and infected cells by PI staining and flow cytometry (see FIG. 5B). Shown is the percentage of PI-positive cells. […] Cells were infected for 2 hours, washed, and cultured in the presence of the drug for 48 hours. Total cellular DNA was extracted at 48 hours post infection and then PCR-amplified to quantify viral DNA (for results see FIG. 5C). Viral 2-LTR-circles were also measured (see FIG. 5D). The relative ratio of 2-LTR circles to viral total DNA was also plotted.

[2] = test system: CEM-SS T cells; experiment: Drug cytotoxicity by PI staining and flow cytometry; conditions: CK548-treated and infected CEM-SS T cells; at 50 μM and below
Experimental: as §1

[3] = test system: single-cycle HIV-1(Env) pseudotyped with HIV-1 gp160; experiment: Viral nuclear migration, 2-LTR circles measured after single-cycle HIV-1 infection; conditions: CEM-SS T cells, 48 hours post infection
Experimental: as §1
(§2) The nuclear migration assay was performed in two CEM-SS-based cells, shArp-12 and shArp-13, which we recently constructed. In both shArp-12 and shArp-13, the actin branching factor Arp3 was stably knockdown (80% knockdown). […] We will re-measure the nuclear entry defect by BLNMA. […] We will also perform BLNMA to confirm the phenotype.

[4] = test system: single-cycle HIV-1(Env) pseudotyped with HIV-1 gp160; experiment: PCR quantification of viral DNA after single-cycle HIV-1 infection; conditions: CEM-SS T cells, 48 hours post infection
Experimental: as §1, §2

Structure (SMILES): O=C1CSC(c2cccc(Br)c2)N1c1cc(Cl)ccc1O (stereo not shown) [CK548]
- HIV-1 infection (viral replication by p24 release) [1]: inhibits HIV-1 infection
- Drug cytotoxicity (percentage of PI-positive cells) [2]: No drug cytotoxicity was detectable
- HIV nuclear migration (2-LTR circles) [3]: inhibits HIV-1 infection and viral nuclear migration; also recorded: dramatically inhibited HIV nuclear migration
- HIV DNA synthesis (viral total DNA by PCR) [4]: stimulating HIV DNA synthesis

Reference: patent US10793864B2, “Methods and compositions for assessing viral nuclear localization” (GEORGE MASON UNIVERSITY, priority 2015, dated 2020)
